Values of other authors in publication PMC6311893, “Computational prediction of plasma protein binding of cyclic peptides from small molecule experimental data using sparse modeling techniques” (BMC Bioinformatics, 2018).
Read-outs that look alike come from different tables or passages of the source.

Tested on: plasma protein
Conditions: cited from earlier work
[1] = fraction bound to plasma protein, small molecule dataset, sheet 1-SM, Set Dtr, ref Ingle et al.
[2] = fraction bound to plasma protein, small molecule dataset, sheet 1-SM, ref Ingle et al.
[3] = fraction bound to plasma protein, small molecule dataset, sheet 1-SM (Set Dte = test, Dtr = training), ref Ingle et al.

Compound: C[C@@H]1O[C@@H](O[C@H]2C[C@@H](O)[C@]3(CO)[C@H]4[C@H](O)C[C@]5(C)[C@@H](C6=CC(=O)OC6)CC[C@]5(O)[C@@H]4CC[C@]3(O)C2)[C@H](O)[C@H](O)[C@H]1O [ouabain]
- PPB (fb) (plasma): 0

Compound: CN1C(=O)OC(C)(C)C1=O [trimethadione]
- PPB (fb) [1]: 0

Compound: CN(C/C=C/C#CC(C)(C)C)Cc1cccc2ccccc12 [terbinafine]
- PPB (fb) [2]: 0.99

Compound: CC(C(=O)O)c1ccc(-c2ccccc2)c(F)c1 (stereo not drawn) [flurbiprofen]
- PPB (fb) [2]: 0.99

Compound: NC(=O)N1c2ccccc2C=Cc2ccccc21 [carbamazepine]
- PPB (fb) [3]: 0.75

Compound: CN(C)S(=O)(=O)C1=CC2C(C=C1)Sc1ccccc1N2CCCN1CCC(CCO)CC1 (stereo not drawn) [Pipotiazine]
- PPB (fb) [2]: 0.45

Compound: CCC(=O)C(CC(C)N(C)C)(c1ccccc1)c1ccccc1 (stereo not drawn) [Methadone]
- PPB (fb) (plasma): 0.84

Compound: Cc1c(N(C)C)c(=O)n(-c2ccccc2)n1C [amidopyrine]
- PPB (fb) [3]: 0.3

Compound: CCOC(=O)[C@H](CCc1ccccc1)N[C@@H](C)C(=O)N1CCC[C@H]1C(=O)O [enalapril]
- PPB (fb) [2]: 0.55

Compound: CC(=O)O[C@@]12CO[C@@H]1C[C@H](O)[C@@]1(C)C(=O)[C@H](O)C3=C(C)[C@@H](OC(=O)[C@H](O)[C@@H](NC(=O)OC(C)(C)C)c4ccccc4)C[C@@](O)([C@@H](OC(=O)c4ccccc4)[C@H]21)C3(C)C [Docetaxel]
- PPB (fb) [3]: 0.96

Compound: CC1(C)SC2C(NC(=O)c3ccccc3)C(=O)N2C1C(=O)O (stereo not drawn) [penicillin14]
- PPB (fb) [2]: 0.87

Compound: C[C@H]1[C@H](OC(=O)CCC(=O)O)O[C@@H]2O[C@@]3(C)CC[C@H]4[C@H](C)CC[C@@H]1[C@@]24OO3 [Artesunate]
- PPB (fb) [1]: 0.75

Compound: CN1CCN(CCCN2c3ccccc3Sc3ccc(C(F)(F)F)cc32)CC1 [trifluoperazine]
- PPB (fb) [1]: 0.99

Compound: Cn1nnnc1SCC1=C(C(=O)O)N2C(=O)[C@@H](NC(=O)[C@H](O)c3ccccc3)[C@H]2SC1 [Cefamandole]
- PPB (fb) [1]: 0.74

Compound: Clevidipine
- PPB (fb) (plasma): 1

Compound: CCN(CC)C(=O)N[C@H]1C=C2c3cccc4[nH]cc(c34)C[C@H]2N(C)C1 [lisuride]
- PPB (fb) (plasma): 0.7

Compound: CCCCC1(CC)C(=O)NC(=O)NC1=O [butobarbital]
- PPB (fb) (plasma): 0.26

Compound: NCCCC(N)(C(=O)O)C(F)F (stereo not drawn) [eflornithine]
- PPB (fb) [3]: 0

Compound: Cc1ccccc1-n1cc(C(=O)O)c(=O)c2cc(F)c(N3CCNCC3)cc21 [4a(o-CH3)]
- PPB (fb) [3]: 0.37

Compound: CN(CC1(C)CCCO1)S(=O)(=O)c1ccc(Cl)c(S(N)(=O)=O)c1 (stereo not drawn) [mefruside]
- PPB (fb) [2]: 0.65

Compound: CNC[C@H](O)c1cccc(O)c1 [phenylephrine]
- PPB (fb) [3]: 0.51

Compound: CCN(CC)C(=O)C1(c2ccccc2)CC1CN (stereo not drawn) [milnacipran]
- PPB (fb) [3]: 0.13

Compound: CCC[C@H](N[C@@H](C)C(=O)N1[C@H](C(=O)O)C[C@@H]2CCCC[C@@H]21)C(=O)OCC [perindopril]
- PPB (fb) [2]: 0.6

Compound: CO[C@H]1/C=C/O[C@@]2(C)Oc3c(C)c(O)c4c(O)c(c(/C=N/N5CCN(C6CCCC6)CC5)c(O)c4c3C2=O)NC(=O)/C(C)=C\C=C\[C@H](C)[C@H](O)[C@@H](C)[C@@H](O)[C@@H](C)[C@H](OC(C)=O)[C@@H]1C [Rifapentine]
- PPB (fb) [2]: 0.93

Compound: CC(CN1c2ccccc2Sc2ccccc21)N(C)C (stereo not drawn) [Promethazine]
- PPB (fb) [1]: 0.88

Compound: CCNC(=O)[C@@H]1CCCN1C(=O)[C@H](CCCNC(=N)N)NC(=O)[C@H](CC(C)C)NC(=O)[C@@H](COC(C)(C)C)NC(=O)[C@H](Cc1ccc(O)cc1)NC(=O)[C@H](CO)NC(=O)[C@H](Cc1c[nH]c2ccccc12)NC(=O)[C@H](Cc1cnc[nH]1)NC(=O)[C@@H]1CCC(=O)N1 [buserelin]
- PPB (fb) (human, plasma): 0.15

Compound: CCCCC(=O)N(Cc1ccc(-c2ccccc2-c2nnn[nH]2)cc1)[C@H](C(=O)O)C(C)C [Valsartan]
- PPB (fb) [2]: 0.95

Compound: C[C@]12CCC(=O)C=C1CC[C@@H]1[C@@H]2[C@@H](O)C[C@@]2(C)[C@H]1CC[C@]2(O)C(=O)CO [Hydrocortisone]
- PPB (fb) [1]: 0.8

Compound: N=C(N)c1ccc(CNC(=O)[C@@H]2CCN2C(=O)[C@H](NCC(=O)O)C2CCCCC2)cc1 [Melagatran]
- PPB (fb) [1]: 0.07

Compound: Oc1cc(O)c2c(c1)O[C@H](c1ccc(O)c(O)c1)[C@H](O)[C@H]2c1c(O)cc(O)c2c1O[C@H](c1ccc(O)c(O)c1)[C@@H](O)C2 [procyanidin B1]
- PPB (fb) (plasma): 0.73

Compound: CCOC(=O)c1c(N)sc2c1CCN(Cc1ccccc1)C2 [Tinoridine]
- PPB (fb) [2]: 0.92

Compound: COC1C(C)OC(OC2C=C3CCC4C(CCC5(C)C(c6ccc(=O)oc6)CCC45O)C3(C)CC2)C(O)C1O (stereo not drawn) [meproscillarin]
- PPB (fb) (plasma): 0.96

Compound: O=C(O)c1cc(=O)c2c(OCC(O)COc3cccc4oc(C(=O)O)cc(=O)c34)cccc2o1 [cromolyn]
- PPB (fb) [3]: 0.68

Compound: NS(=O)(=O)c1cc(-c2nnn[nH]2)c(NCc2cccs2)cc1Cl [azosemide]
- PPB (fb) [3]: 0.96

Compound: CC(=O)CCCCn1c(=O)c2c(ncn2C)n(C)c1=O [pentoxifylline]
- PPB (fb) [2]: 0

Compound: CCC1(c2ccccc2)C(=O)NC(=O)NC1=O [Phenobarbital]
- PPB (fb) (plasma): 0.43

Compound: CCC1(c2cccc(O)c2)CCCCN(C)C1 (stereo not drawn) [Meptazinol]
- PPB (fb) (plasma): 0.27

Compound: C[C@@](Cc1ccc(O)c(O)c1)(NN)C(=O)O [carbidopa]
- PPB (fb) [3]: 0.36

Compound: COc1cc2nc(N(C)CCCNC(=O)C3CCCO3)nc(N)c2cc1OC (stereo not drawn) [alfuzosin]
- PPB (fb) [3]: 0.9
